1 molecule from ChEMBL document CHEMBL1141155, “The protein farnesyltransferase inhibitor Tipifarnib as a new lead for the development of drugs against Chagas disease” (J Med Chem, 2005) can be followed below.

Assay [1] in a line: Inhibitory concentration against Protein farnesyltransferase of Trypanosoma cruzi.
In another assay the test system is Trypanosoma cruzi. Kind of assay: Inhibition of Trypanosoma cruzi growth. Format: functional. Conditions: read-out: ED50 (the source's name).

Broadly, the IC50 is the concentration that gives 50% inhibition. Low values mean greater potency, high ones weaker potency.

Consider `Cn1cncc1[C@@](N)(c1ccc(Cl)cc1)c1ccc2c(c1)c(-c1cccc(Cl)c1)cc(=O)n2C` [TIPIFARNIB], for which the IC50 in assay [1] is ~75 nM. Besides, in the assay with Trypanosoma cruzi, the EC50 worked out at 4 nM.
